“Also recorded” adds a separate entry of the source. Where two headings read alike, the source gives them in different places.
Columns and labels:
[1] = test system: Wnt3a/FZD7-mediated cytoplasmic β-catenin accumulation; experiment: Western blot of FZD7-dependent cytoplasmic β-catenin accumulation in ΔFZD1–10 HEK293T; format: cell-based, human; settings: 10 μM, FZD7-transfected ΔFZD1–10 HEK293T
Protocol: In 24-well plates, a ΔFZD1–10 HEK293T cell line was reinfected with a baculovirus expressing FZD7 or a control baculovirus at a density of 100,000 cells/well. The new medium containing the 10 μM F7H-28 derivative and the indicated Wnt activators (500 ng/mL Wnt3a or 1 μM CHIR99021) was added and incubated until the next day. The medium was then removed, and 500 μL of 1× PBS was used twice for washing. After adding 30 μL of ice-cold 1× TBS supplemented with 4 mM EDTA and 1× protease inhibitor cocktail, the cells were lysed by scraping and passed through an insulin 30G needle 10 times. The samples were centrifuged at 18,000g and 4 °C for 10 min to remove debris. Western blot was performed on 15 μL of each supernatant and developed using antibodies against α-tubulin and β-catenin.

FZD7 [2] = test system: FZD7; set-up: method as in PMID 37669317; settings: cited from earlier work
FZD7 [3] = biological target: T1, FZD7 (Homo sapiens, UniProt O75084); experiment: cell-based
FZD7 [4] = biological target: T1, FZD7; experiment: TopFlash in ΔFZD1–10 HEK293T with reexpressed FZD7, Wnt3a-stimulated; settings: FZD7 reexpression, firefly TopFlash
FZD7 [5] = biological target: T1, FZD7; experiment: NanoLuc-substituted TopFlash reporter in ΔFZD1–10 HEK293T cotransfected with FZD7, Wnt3a
firefly luciferase = firefly luciferase (Photinus pyralis, UniProt P08659); experiment: Compound added to prestimulated TopFlash cells immediately prior to lysis and measurement; settings: compound added directly before cell lysis
Sequence of firefly luciferase (P08659 whole entry): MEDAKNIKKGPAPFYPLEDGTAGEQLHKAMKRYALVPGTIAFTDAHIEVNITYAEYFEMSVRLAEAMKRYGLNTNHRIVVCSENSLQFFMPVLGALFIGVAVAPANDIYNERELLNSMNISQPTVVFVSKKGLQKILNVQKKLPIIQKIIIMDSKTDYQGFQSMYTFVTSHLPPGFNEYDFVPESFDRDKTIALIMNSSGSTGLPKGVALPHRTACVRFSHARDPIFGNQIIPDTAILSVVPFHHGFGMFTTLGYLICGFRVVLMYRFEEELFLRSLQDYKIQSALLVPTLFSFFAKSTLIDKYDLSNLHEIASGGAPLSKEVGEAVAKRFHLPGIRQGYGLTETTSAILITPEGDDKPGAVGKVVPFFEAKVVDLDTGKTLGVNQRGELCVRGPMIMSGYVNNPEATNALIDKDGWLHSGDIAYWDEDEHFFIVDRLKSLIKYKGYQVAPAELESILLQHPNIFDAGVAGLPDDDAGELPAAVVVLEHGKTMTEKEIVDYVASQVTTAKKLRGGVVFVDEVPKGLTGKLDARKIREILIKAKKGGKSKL

HEK293T cells [6] = experiment: Renilla luciferase (pRL-CMV) toxicity/general transcription readout in wild-type reporter HEK293T; settings: for IC50: Homo sapiens, HEK-293T, read-out: IC50 (Renilla)
[7] = test system: CHIR99021-stimulated Wnt pathway activation; experiment: TopFlash assay in reporter wild-type HEK293T line, CHIR99021-stimulated; format: cell-based, human; settings: for inhibition of CHIR99021-stimulated response compared with Wnt3a-stimulated, in words: wild-type reporter HEK293T, TopFlash
ΔFZD1–10 HEK293T cells = settings: for toxicity / general transcriptional inhibition by Renilla signal, in words: Renilla luciferase
FZD7 [8] = test system: FZD7; set-up: method as in PMID 29207657; settings: claimed FZD7 inhibition; cited from earlier work
[9] = test system: CHIR99021-induced Wnt pathway activation (FZD-independent); experiment: TopFlash in ΔFZD1–10 HEK293T without FZD (pcDNA), CHIR99021-stimulated
[10] = test system: Wnt3a-stimulated Wnt pathway activation; experiment: TopFlash assay in reporter wild-type HEK293T line, Wnt3a-stimulated; format: cell-based, human; settings: for IC50: Homo sapiens, HEK-293T, Wnt3a
FZD4 = biological target: T2, FZD4 (Mus musculus, UniProt Q61088); experiment: TopFlash in ΔFZD1–10 HEK293T with reexpressed FZD4, Wnt3a-stimulated; settings: ΔFZD1–10 HEK293T + FZD4, Wnt3a, up to 50 μM
T2 sequence (Q61088 37-537): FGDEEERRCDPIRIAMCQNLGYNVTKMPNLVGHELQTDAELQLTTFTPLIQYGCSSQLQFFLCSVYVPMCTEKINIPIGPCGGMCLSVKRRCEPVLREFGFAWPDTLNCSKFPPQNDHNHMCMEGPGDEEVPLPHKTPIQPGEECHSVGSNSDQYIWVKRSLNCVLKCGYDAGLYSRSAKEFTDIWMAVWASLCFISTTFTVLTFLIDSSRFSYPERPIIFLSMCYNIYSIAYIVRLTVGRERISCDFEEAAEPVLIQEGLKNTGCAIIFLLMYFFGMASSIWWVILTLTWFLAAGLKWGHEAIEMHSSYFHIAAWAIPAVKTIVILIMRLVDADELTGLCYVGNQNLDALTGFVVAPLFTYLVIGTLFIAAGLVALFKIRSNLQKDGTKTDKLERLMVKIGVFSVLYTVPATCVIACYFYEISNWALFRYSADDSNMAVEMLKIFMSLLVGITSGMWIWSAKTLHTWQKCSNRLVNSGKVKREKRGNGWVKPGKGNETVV

[11] = test system: individually reexpressed FZDs (1,2,4,5,7,8, and 10); experiment: TopFlash in ΔFZD1–10 HEK293T, panel of individually reexpressed FZDs, Wnt3a-stimulated (collective statements)
HEK293T cells [12] = test system: HEK293T cells
mouse FZD8 = test system: mouse FZD8; set-up: method as in PMID 32049522; settings: HEK293T FZD1,2,7 knockout + mouse FZD8; cited from earlier work
[13] = test system: Wnt signaling in TopFlash-transfected 3T3 cells; set-up: method as in PMID 26504084; settings: read-out: potency; cited from earlier work
[14] = read-out: IC50 / potency, ΔFZD1–10 HEK293T without FZD, CHIR99021

In the case of `O=C(CSc1ccc(NC(=O)c2ccc(F)cc2)cc1)Nc1nc(-c2ccccc2)cs1` [F7H-28], the “effect on cytoplasmic β-catenin signal (Western blot), in words” value [1] is given as “does not reduce this signal”, the IC50 (FZD7 [2]) is given as 0.04 µM and the IC50 (FZD7 [3]) is given as > 50 µM. For the same molecule, the “potency compared with CHIR99021-stimulated cells, in words” value (FZD7 [4]) was “same potency”, the “effect on NanoLuc Wnt reporter, in words” value (FZD7 [5]) was “does not report significant changes” and the “direct effect on firefly luciferase, in words” value (firefly luciferase) was “inhibits the firefly luciferase enzymatic activity”. For the same molecule, the IC50 (HEK293T cells [6]) was > 2 µM.

For `O=C(/C=C/c1ccc2c(c1)OCO2)Nc1ccc(-n2cnc3ccccc32)cc1` [SRI35959], the “inhibition of CHIR99021-stimulated response compared with Wnt3a-stimulated, in words” value [7] is given as “slightly (but significantly) better”, the “toxicity / general transcriptional inhibition by Renilla signal, in words” value (ΔFZD1–10 HEK293T cells) is given as “some toxicity” and the IC50 (FZD7 [8]) is given as ~3 µM. The IC50 [9, 14] was 10 µM and the “toxicity by effect on Renilla luciferase, in words” value (HEK293T cells [6]; wild-type reporter HEK293T, Renilla luciferase) was “some toxicity”.

In the case of `O=C(Nc1cc(O)cc(-c2cccs2)c1)Nc1ccc2ccccc2c1` [FzM1], the “activity against Wnt signaling, in words” value ([10]; wild-type HEK293T, up to 50 μM) is reported as “no detectable activity; also recorded: no statistically discernible effect”, the “effect on FZD4-dependent Wnt3a signaling, in words” value (FZD4) is reported as “no statistically discernible effect” and the “activity against Wnt signaling, in words” value ([11]; any of the FZDs in ΔFZD1–10 HEK293T, Wnt3a, up to 50 μM) is reported as “no detectable activity; also recorded: no statistically discernible effect”.

In the case of `NC(=O)N1c2ccccc2C=Cc2ccccc21` [carbamazepine], the “inhibition of CHIR99021-stimulated response compared with Wnt3a-stimulated, in words” value [7] is reported as “slightly (but significantly) better”, the “toxicity by effect on Renilla luciferase, in words” value (HEK293T cells [12]) is reported as “some toxicity” and the “toxicity / general transcriptional inhibition by Renilla signal, in words” value (ΔFZD1–10 HEK293T cells) is reported as “some toxicity”. The “inhibition of Wnt3a-induced signal, in words” value (mouse FZD8) was “partially inhibited” and the IC50 [9, 14] was ~50 µM.

For `COc1ccc(C(=O)Nc2ccccc2C(=O)NC(C(=O)NNC(=O)COc2ccccc2)C(C)C)cc1` (centres unmarked) [3235-0367], the IC50 ([10]; wild-type reporter HEK293T, TopFlash) was ~8 µM, the “inhibition of CHIR99021-stimulated response compared with Wnt3a-stimulated, in words” value [7] was “overlapping inhibition curve” and the IC50 (ΔFZD1–10 HEK293T cells; read-out: IC50 (Renilla), Renilla luciferase signal) was > 50 µM. The IC50 [13] was 7.1 µM, the IC50 [9, 14] was ~20 µM and the IC50 (HEK293T cells [6]) was > 50 µM. The “selectivity among FZDs, in words” value ([11]; individual FZDs including FZD8) was “no significant selectivity”.

In the case of `CSCC[C@H](NC(=O)[C@@H](NC(=O)[C@H](Cc1c[nH]cn1)NC(=O)[C@H](CS)NC(=O)[C@H](Cc1c[nH]c2ccccc12)NC(=O)[C@H](Cc1ccccc1)NC(=O)[C@H](CCC(=O)O)NC(=O)[C@H](CC(C)C)NC(=O)[C@H](CC(=O)O)NC(=O)[C@H](CC(=O)O)NC(=O)[C@H](CO)NC(=O)[C@@H]1CCCN1C(=O)[C@@H](N)CC(C)C)C(C)C)C(=O)N[C@@H](Cc1ccc(O)cc1)C(=O)O` [Fz7–21, LPSDDLEFWCHVMY], the “toxicity / general transcriptional inhibition by Renilla signal, in words” value (ΔFZD1–10 HEK293T cells) is reported as “no unspecific toxicity”.

Work on `O=C(Nc1ccc([N+](=O)[O-])cc1Cl)c1cc(Cl)ccc1O` [niclosamide] yielded an IC50 ([10]; wild-type HEK293T reporter line) of 0.1 µM, an IC50 ([7]; Homo sapiens, HEK-293T, wild-type HEK293T reporter line) of 0.1 µM and an IC50 ([9]; CHIR99021 in cells deprived of any FZD protein) of 0.1 µM. The IC50 ([11]; all individually reexpressed FZDs, Wnt3a) was 0.1 µM.

Reference: article PMC11650735, “Challenging Reported Frizzled-Targeting Compounds in Selective Assays Reveals Lack of Functional Inhibition and Claimed Profiles” (ACS Pharmacology & Translational Science, 2024)
